Source: the NIST ThermoML archive (doi:10.1021/je060355j)

Legend:
[1] = excess molar enthalpy (molar enthalpy of mixing); xn = mol fraction of the nth substance listed; conditions: 101.32 kPa, Liquid
[2] = xn = mol fraction of the nth substance listed; conditions: 101.32 kPa, Liquid

CCOC=O [ethyl methanoate] + CCCCCC
Conditions | excess molar enthalpy [kcal/mol] | mass density [kg/m3]
[1], 291.15 K, x1 = 0.092 | 0.107 | –
[1], 291.15 K, x1 = 0.209 | 0.228 | –
[1], 291.15 K, x1 = 0.3175 | 0.305 | –
[1], 291.15 K, x1 = 0.4075 | 0.346 | –
[1], 291.15 K, x1 = 0.4677 | 0.364 | –
[1], 291.15 K, x1 = 0.5161 | 0.368 | –
[1], 291.15 K, x1 = 0.5681 | 0.365 | –
[1], 291.15 K, x1 = 0.6185 | 0.344 | –
[1], 291.15 K, x1 = 0.6714 | 0.319 | –
[1], 291.15 K, x1 = 0.7272 | 0.286 | –
[1], 291.15 K, x1 = 0.7841 | 0.243 | –
[1], 291.15 K, x1 = 0.843 | 0.188 | –
[1], 291.15 K, x1 = 0.9022 | 0.127 | –
[1], 291.15 K, x1 = 0.9514 | 0.0729 | –
[1], 318.15 K, x1 = 0.1003 | 0.149 | –
[1], 318.15 K, x1 = 0.1895 | 0.244 | –
[1], 318.15 K, x1 = 0.2842 | 0.323 | –
[1], 318.15 K, x1 = 0.3713 | 0.367 | –
[1], 318.15 K, x1 = 0.4495 | 0.389 | –
[1], 318.15 K, x1 = 0.5137 | 0.394 | –
[1], 318.15 K, x1 = 0.5599 | 0.387 | –
[1], 318.15 K, x1 = 0.5991 | 0.374 | –
[1], 318.15 K, x1 = 0.6795 | 0.337 | –
[1], 318.15 K, x1 = 0.7593 | 0.281 | –
[1], 318.15 K, x1 = 0.8299 | 0.216 | –
[1], 318.15 K, x1 = 0.8814 | 0.155 | –
[1], 318.15 K, x1 = 0.9215 | 0.105 | –
[1], 318.15 K, x1 = 0.966 | 0.051 | –
[2], 291.15 K, x1 = 0.0495 | – | 667.8
[2], 291.15 K, x1 = 0.1025 | – | 675.4
[2], 291.15 K, x1 = 0.1497 | – | 682.8
[2], 291.15 K, x1 = 0.2049 | – | 692.1
[2], 291.15 K, x1 = 0.2531 | – | 700.4
[2], 291.15 K, x1 = 0.3068 | – | 710.6
[2], 291.15 K, x1 = 0.3937 | – | 728.2
[2], 291.15 K, x1 = 0.5016 | – | 753
[2], 291.15 K, x1 = 0.6039 | – | 780
[2], 291.15 K, x1 = 0.6996 | – | 808.2
[2], 291.15 K, x1 = 0.7504 | – | 824.6
[2], 291.15 K, x1 = 0.8029 | – | 842.4
[2], 291.15 K, x1 = 0.9016 | – | 880.3
[2], 291.15 K, x1 = 0.9065 | – | 882.4
[2], 291.15 K, x1 = 0.9522 | – | 901.9
[2], 291.15 K, x1 = 0.958 | – | 905
[2], 291.15 K, x1 = 1 | – | 924.7
[2], 298.15 K, x1 = 0.0777 | – | 665.63
[2], 298.15 K, x1 = 0.1291 | – | 673.25
[2], 298.15 K, x1 = 0.1715 | – | 679.95
[2], 298.15 K, x1 = 0.2501 | – | 693.44
[2], 298.15 K, x1 = 0.327 | – | 707.73
[2], 298.15 K, x1 = 0.4765 | – | 739.84
[2], 298.15 K, x1 = 0.5354 | – | 754.13
[2], 298.15 K, x1 = 0.5955 | – | 769.95
[2], 298.15 K, x1 = 0.6441 | – | 783.83
[2], 298.15 K, x1 = 0.6993 | – | 800.39
[2], 298.15 K, x1 = 0.7956 | – | 832.38
[2], 298.15 K, x1 = 0.884 | – | 865.42
[2], 298.15 K, x1 = 0.9643 | – | 898.98
[2], 298.15 K, x1 = 1 | – | 915.16
[2], 308.15 K, x1 = 0.0485 | – | 651.9
[2], 308.15 K, x1 = 0.1103 | – | 660.5
[2], 308.15 K, x1 = 0.1539 | – | 667.2
[2], 308.15 K, x1 = 0.2548 | – | 683.8
[2], 308.15 K, x1 = 0.3998 | – | 711.6
[2], 308.15 K, x1 = 0.4915 | – | 731.9
[2], 308.15 K, x1 = 0.5935 | – | 757.8
[2], 308.15 K, x1 = 0.6998 | – | 788
[2], 308.15 K, x1 = 0.7971 | – | 819.9
[2], 308.15 K, x1 = 0.9063 | – | 860.7
[2], 308.15 K, x1 = 0.9488 | – | 878.7
[2], 308.15 K, x1 = 1 | – | 902.07
[2], 318.15 K, x1 = 0.0476 | – | 642.18
[2], 318.15 K, x1 = 0.0875 | – | 647.84
[2], 318.15 K, x1 = 0.1044 | – | 649.54
[2], 318.15 K, x1 = 0.1471 | – | 655.88
[2], 318.15 K, x1 = 0.2199 | – | 667.46
[2], 318.15 K, x1 = 0.3041 | – | 681.93
[2], 318.15 K, x1 = 0.4061 | – | 701.97
[2], 318.15 K, x1 = 0.5293 | – | 729.7
[2], 318.15 K, x1 = 0.5869 | – | 744.1
[2], 318.15 K, x1 = 0.6984 | – | 775.52
[2], 318.15 K, x1 = 0.7476 | – | 790.78
[2], 318.15 K, x1 = 0.7932 | – | 805.56
[2], 318.15 K, x1 = 0.8873 | – | 840.19
[2], 318.15 K, x1 = 0.9692 | – | 874.21
[2], 318.15 K, x1 = 1 | – | 888.42

CCCOC=O [propyl methanoate] + CCCCCC
Conditions | excess molar enthalpy [kcal/mol] | mass density [kg/m3]
[1], 291.15 K, x1 = 0.0969 | 0.118 | –
[1], 291.15 K, x1 = 0.186 | 0.187 | –
[1], 291.15 K, x1 = 0.2656 | 0.235 | –
[1], 291.15 K, x1 = 0.3316 | 0.264 | –
[1], 291.15 K, x1 = 0.3921 | 0.282 | –
[1], 291.15 K, x1 = 0.4458 | 0.289 | –
[1], 291.15 K, x1 = 0.4941 | 0.29 | –
[1], 291.15 K, x1 = 0.5356 | 0.287 | –
[1], 291.15 K, x1 = 0.5758 | 0.274 | –
[1], 291.15 K, x1 = 0.6321 | 0.258 | –
[1], 291.15 K, x1 = 0.6905 | 0.23 | –
[1], 291.15 K, x1 = 0.7533 | 0.195 | –
[1], 291.15 K, x1 = 0.8171 | 0.154 | –
[1], 291.15 K, x1 = 0.885 | 0.0993 | –
[1], 291.15 K, x1 = 0.9453 | 0.0458 | –
[1], 318.15 K, x1 = 0.0848 | 0.113 | –
[1], 318.15 K, x1 = 0.1889 | 0.202 | –
[1], 318.15 K, x1 = 0.2934 | 0.268 | –
[1], 318.15 K, x1 = 0.3854 | 0.305 | –
[1], 318.15 K, x1 = 0.4624 | 0.32 | –
[1], 318.15 K, x1 = 0.521 | 0.32 | –
[1], 318.15 K, x1 = 0.5945 | 0.309 | –
[1], 318.15 K, x1 = 0.6631 | 0.284 | –
[1], 318.15 K, x1 = 0.7368 | 0.245 | –
[1], 318.15 K, x1 = 0.8154 | 0.19 | –
[1], 318.15 K, x1 = 0.8906 | 0.124 | –
[1], 318.15 K, x1 = 0.9523 | 0.0594 | –
[2], 291.15 K, x1 = 0.0544 | – | 670.1
[2], 291.15 K, x1 = 0.0893 | – | 676
[2], 291.15 K, x1 = 0.1509 | – | 687.4
[2], 291.15 K, x1 = 0.2001 | – | 696.5
[2], 291.15 K, x1 = 0.248 | – | 705.8
[2], 291.15 K, x1 = 0.2521 | – | 706.6
[2], 291.15 K, x1 = 0.3979 | – | 737.6
[2], 291.15 K, x1 = 0.5017 | – | 761.8
[2], 291.15 K, x1 = 0.6122 | – | 789.6
[2], 291.15 K, x1 = 0.6985 | – | 813.1
[2], 291.15 K, x1 = 0.7473 | – | 827
[2], 291.15 K, x1 = 0.8013 | – | 842.8
[2], 291.15 K, x1 = 0.8499 | – | 857.8
[2], 291.15 K, x1 = 0.9057 | – | 875.5
[2], 291.15 K, x1 = 0.9568 | – | 892.9
[2], 291.15 K, x1 = 1 | – | 907.8
[2], 298.15 K, x1 = 0.0787 | – | 668.91
[2], 298.15 K, x1 = 0.1478 | – | 681.52
[2], 298.15 K, x1 = 0.2237 | – | 695.63
[2], 298.15 K, x1 = 0.2941 | – | 709.36
[2], 298.15 K, x1 = 0.3597 | – | 722.93
[2], 298.15 K, x1 = 0.4297 | – | 738.37
[2], 298.15 K, x1 = 0.4878 | – | 751.68
[2], 298.15 K, x1 = 0.5453 | – | 765.36
[2], 298.15 K, x1 = 0.6019 | – | 779.74
[2], 298.15 K, x1 = 0.6599 | – | 794.74
[2], 298.15 K, x1 = 0.7154 | – | 810
[2], 298.15 K, x1 = 0.765 | – | 824.15
[2], 298.15 K, x1 = 0.812 | – | 838.34
[2], 298.15 K, x1 = 0.8656 | – | 854.66
[2], 298.15 K, x1 = 0.921 | – | 872.18
[2], 298.15 K, x1 = 0.9567 | – | 884.05
[2], 298.15 K, x1 = 1 | – | 899.08
[2], 308.15 K, x1 = 0.0693 | – | 657.5
[2], 308.15 K, x1 = 0.1125 | – | 665.1
[2], 308.15 K, x1 = 0.1993 | – | 680.76
[2], 308.15 K, x1 = 0.3036 | – | 701.12
[2], 308.15 K, x1 = 0.3975 | – | 720.81
[2], 308.15 K, x1 = 0.5069 | – | 745.56
[2], 308.15 K, x1 = 0.5902 | – | 765.82
[2], 308.15 K, x1 = 0.7035 | – | 795.66
[2], 308.15 K, x1 = 0.8034 | – | 824.55
[2], 308.15 K, x1 = 0.9002 | – | 854.72
[2], 308.15 K, x1 = 0.9482 | – | 870.44
[2], 308.15 K, x1 = 1 | – | 888.36
[2], 318.15 K, x1 = 0.0796 | – | 648.93
[2], 318.15 K, x1 = 0.1547 | – | 661.76
[2], 318.15 K, x1 = 0.2278 | – | 674.93
[2], 318.15 K, x1 = 0.2909 | – | 687.08
[2], 318.15 K, x1 = 0.3611 | – | 701.46
[2], 318.15 K, x1 = 0.4273 | – | 715.75
[2], 318.15 K, x1 = 0.487 | – | 729.26
[2], 318.15 K, x1 = 0.5747 | – | 750.24
[2], 318.15 K, x1 = 0.6031 | – | 757.34
[2], 318.15 K, x1 = 0.6617 | – | 772.47
[2], 318.15 K, x1 = 0.7118 | – | 785.91
[2], 318.15 K, x1 = 0.7661 | – | 801.18
[2], 318.15 K, x1 = 0.8123 | – | 814.59
[2], 318.15 K, x1 = 0.8602 | – | 829.22
[2], 318.15 K, x1 = 0.9109 | – | 845.53
[2], 318.15 K, x1 = 0.9581 | – | 860.97
[2], 318.15 K, x1 = 1 | – | 875.32
